Source: US10745346B2, “Agonists of protein tyrosine phosphatase SHP-1” (priority 2015, dated 2020)

Assays:
[1] = target: Recombinant SHP-1 protein (Homo sapiens, UniProt P29350); test: SHP-1 phosphatase activity assay (RediPlate 96 EnzChek Tyrosine Phosphatase Assay kit); format: biochemical; settings: SC derivatives at 1 μM for 2 hr; recombinant SHP-1 25 ng; control DMSO = 100; mean±SD (N=3)
Experimental: Effects of SC Derivatives on Phosphatase Activity in Recombinant SHP-1 RediPlate 96 EnzChek Tyrosine Phosphatase Assay kit (R-22067) was used for SHP-1 activity assay (Molecular Probes). Recombinant SHP-1 protein (25 ng) was reacted with SC derivatives at 1 μM for 2 hr. Then the SHP-1 phosphatase activity assay was performed according to the user's manual and the absorbance was measured at 465 nm. The control group was DMSO, which functioned as the solvent of the SC derivatives. The values were expressed by mean±SD (N=3).

[2] = tested on: PLC5 cells (a hepatocellular carcinoma cell line); test: Cytotoxicity, MTT cell viability assay; format: cell-based; settings: 72 h exposure
Experimental: PLC5 cells (a hepatocellular carcinoma cell line) were seeded at 5×10^3 cells per well in 96-well plates. Then, cells were exposed to SC derivatives at the indicated doses for 72 h. After that, cells were incubated with MTT (1 mg/ml) (Sigma-Aldrich, St. Louis, Mo.) for 2 h at 37° C. Cell viability was then assessed by measuring the absorbance at 570 nm using a microplate reader.

Sequence of Recombinant SHP-1 protein (P29350 whole entry): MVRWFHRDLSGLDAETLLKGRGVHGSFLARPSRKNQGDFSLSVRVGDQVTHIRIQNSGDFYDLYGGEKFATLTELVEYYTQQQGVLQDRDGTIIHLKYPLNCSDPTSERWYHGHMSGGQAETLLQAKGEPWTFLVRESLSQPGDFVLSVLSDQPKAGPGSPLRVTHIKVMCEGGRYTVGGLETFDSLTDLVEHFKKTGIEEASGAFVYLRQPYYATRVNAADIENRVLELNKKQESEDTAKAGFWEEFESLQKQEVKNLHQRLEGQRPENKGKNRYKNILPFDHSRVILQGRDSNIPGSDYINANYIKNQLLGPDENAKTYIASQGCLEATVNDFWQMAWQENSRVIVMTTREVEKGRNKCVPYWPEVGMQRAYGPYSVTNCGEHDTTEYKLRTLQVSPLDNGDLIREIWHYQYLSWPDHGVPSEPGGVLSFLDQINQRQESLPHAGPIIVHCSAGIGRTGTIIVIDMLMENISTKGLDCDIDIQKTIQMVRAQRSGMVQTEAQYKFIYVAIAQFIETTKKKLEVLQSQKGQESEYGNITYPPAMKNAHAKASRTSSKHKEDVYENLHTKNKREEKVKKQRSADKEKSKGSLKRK

| SMILES | SHP-1 Activity (% of control) [1] | IC50 [2] |
| --- | --- | --- |
| Cc1ccc(NC(=O)Nc2ccc(C)c(Oc3ccc(/C(N)=N/O)cc3)c2)cc1Oc1ccc(/C(N)=N/O)cc1 [compound 94, (1Z,1′Z)-4,4′-(((carbonylbis(azanediyl))bis(2-methyl-5,1-phenylene))bis(oxy))bis(N′-hydroxybenzimidamide)] | 114.65 ± 13.55 % of control | > 10000 nM |
| N#Cc1ccc(Oc2ccc(Cl)c(NC(=O)Nc3cc(Oc4ccc(C#N)cc4)ccc3Cl)c2)cc1 [compound 91, 1,3-bis(2-chloro-5-(4-cyanophenoxy)phenyl)urea] | 99.99 ± 4.52 % of control | > 10000 nM |
| Cc1ccc(NC(=O)Nc2ccc(Cl)c(C(F)(F)F)c2)cc1Oc1ccc(C#N)c(F)c1 [compound 88, 1-(4-chloro-3-(trifluoromethyl)phenyl)-3-(3-(4-cyano-3-fluorophenoxy)-4-methylphenyl)urea] | 100.48 ± 13.31 % of control | 1050 nM |
| N#Cc1ccc(Oc2ccc(F)c(NC(=O)Nc3cc(Oc4ccc(C#N)cc4)ccc3F)c2)cc1 [compound 97, 1,3-bis(5-(4-cyanophenoxy)-2-fluorophenyl)urea] | 127.01 ± 9.02 % of control | > 10000 nM |
| Cc1ccc(NC(=O)Nc2ccc(Cl)c(C(F)(F)F)c2)cc1Oc1ccc(C#N)cc1 [compound 133, 1-(4-chloro-3-(trifluoromethyl)phenyl)-3-(3-(4-cyanophenoxy)-4-methylphenyl)urea] | 253.18 ± 26.17 % of control | 440 nM |
| C#Cc1cccc(NC(=O)Nc2ccc(Cl)c(Oc3ccc(C#N)cc3)c2)c1 [compound 140, 1-(4-chloro-3-(4-cyanophenoxy)phenyl)-3-(3-ethynylphenyl)urea] | 140.81 ± 2.48 % of control | 830 nM |
| Cc1cc(Oc2ccc(C#N)cc2)ccc1NC(=O)Nc1ccc(Oc2ccc(C#N)cc2)cc1C [compound 90, 1,3-bis(4-(4-cyanophenoxy)-2-methylphenyl)urea] | 95.78 ± 10.66 % of control | > 10000 nM |
| N#Cc1ccc(Oc2cc(NC(=O)Nc3ccc(Cl)c(C(F)(F)F)c3)ccc2Cl)cc1Cl [compound 179, 1-(4-chloro-3-(3-chloro-4-cyanophenoxy)phenyl)-3-(4-chloro-3-(trifluoromethyl)phenyl)urea] | 99.11 ± 7.09 % of control | 950 nM |
| N#Cc1ccc(Oc2cc(NC(=O)Nc3cc(C(F)(F)F)cc(C(F)(F)F)c3)ccc2Cl)cc1Cl [compound 180, 1-(3,5-bis(trifluoromethyl)phenyl)-3-(4-chloro-3-(3-chloro-4-cyanophenoxy)phenyl)urea] | 105.52 ± 0.87 % of control | 780 nM |
| N#Cc1ccc(Oc2ccc3cccc(NC(=O)Nc4cccc5ccc(Oc6ccc(C#N)cc6)cc45)c3c2)cc1 [compound 73, 1,3-bis(7-(4-cyanophenoxy)naphthalen-1-yl)urea] | 102.24 ± 17.36 % of control | > 10000 nM |
| N#Cc1ccc(Oc2cccc(NC(=O)Nc3ccc(Cl)c(C(F)(F)F)c3)c2)cc1Cl [compound 79, 1-(4-chloro-3-(trifluoromethyl)phenyl)-3-(3-(3-chloro-4-cyanophenoxy)phenyl)urea] | 112.25 ± 0.60 % of control | 820 nM |
| Cc1ccc(NC(=O)Nc2ccc(C)c(Oc3ccc(C#N)c(Cl)c3)c2)cc1Oc1ccc(C#N)c(Cl)c1 [compound 82, 1,3-bis(3-(3-chloro-4-cyanophenoxy)-4-methylphenyl)urea] | 92.68 ± 5.66 % of control | 4140 nM |
| Cc1ccc(NC(=O)Nc2ccc(C)c(Oc3cnc(C#N)c(F)c3)c2)cc1Oc1cnc(C#N)c(F)c1 [compound 104, 1,3-bis(3-((6-cyano-5-fluoropyridin-3-yl)oxy)-4-methylphenyl)urea] | 139.74 ± 4.92 % of control | > 10000 nM |
| N#Cc1ccc(Oc2ccc3cccc(NC(=O)C4(C(=O)O)CC4)c3c2)cc1 [compound 75, 1-((7-(4-cyanophenoxy)naphthalen-1-yl)carbamoyl)cyclopropane carboxylic acid] | 111.30 ± 9.50 % of control | > 10000 nM |
| N#Cc1ccc(Oc2ccc(NC(=O)Nc3ccc(Oc4ccc(C#N)cc4)cc3F)c(F)c2)cc1 [compound 106, 1,3-bis(4-(4-cyanophenoxy)-2-fluorophenyl)urea] | 147.13 ± 8.51 % of control | > 10000 nM |
| Cc1ccc(NC(=O)C2(C(=O)O)CC2)cc1Oc1ccc(C#N)cc1 [compound 68] | 84.36 ± 11.31 % of control | > 10000 nM |

| SMILES | SHP-1 Activity (% of control) [1] | IC50 [2] |
| --- | --- | --- |
| N#Cc1ccc(Oc2cc(NC(=O)Nc3cc(C(F)(F)F)cc(C(F)(F)F)c3)ccc2Cl)cc1 [compound 148, 1-(3,5-bis(trifluoromethyl)phenyl)-3-(4-chloro-3-(4-cyanophenoxy)phenyl) urea] | 363.95 ± 18.11 % of control | 220 nM |
| N#Cc1ccc(Oc2ccc(F)c(NC(=O)Nc3ccc(Cl)c(C(F)(F)F)c3)c2)cc1 [compound 105, 1-(4-chloro-3-(trifluoromethyl)phenyl)-3-(5-(4-cyanophenoxy)-2-fluorophenyl)urea] | 424.63 ± 10.66 % of control | 470 nM |
| Cc1cc(Oc2cc(NC(=O)Nc3ccc(Cl)c(C(F)(F)F)c3)ccc2Cl)ccc1C#N [compound 175, 1-(4-chloro-3-(4-cyano-3-methylphenoxy)phenyl)-3-(4-chloro-3-(trifluoromethyl)phenyl)urea] | 233.37 ± 36.5 % of control | 1200 nM |
| Cc1ccc(NC(=O)Nc2cc(Oc3ccc(C#N)cc3)ccc2F)cc1Oc1ccc(C#N)nc1 [compound 110, 1-(5-(4-cyanophenoxy)-2-fluorophenyl)-3-(3-((6-cyanopyridin-3-yl)oxy)-4-methylphenyl)urea] | 146.29 ± 12.80 % of control | 7650 nM |
| Cc1ccc(NC(=O)Nc2ccc(Cl)c(C(F)(F)F)c2)cc1Oc1ccc(C#N)c(Br)c1 [compound 89, 1-(3-(3-bromo-4-cyanophenoxy)-4-methylphenyl)-3-(4-chloro-3-(trifluoromethyl)phenyl)urea] | 143.45 ± 15.17 % of control | 830 nM |
| Cc1cc(Oc2cc(NC(=O)Nc3ccc(C)c(Oc4ccc(C#N)nc4)c3)ccc2C)ccc1C#N [compound 102, 1-(3-(4-cyano-3-methylphenoxy)-4-methylphenyl)-3-(3-((6-cyanopyridin-3-yl)oxy)-4-methylphenyl)urea] | 140.46 ± 12.56 % of control | 160 nM |
| N#Cc1ccc(Oc2ccc(F)c(NC(=O)Nc3ccc(F)c(C(F)(F)F)c3)c2)cc1 [compound 145, 1-(5-(4-cyanophenoxy)-2-fluorophenyl)-3-(4-fluoro-3-(trifluoromethyl)phenyl)urea] | 168.15 ± 1.97 % of control | 850 nM |
| C#Cc1cccc(NC(=O)N2CCOc3ccc(Oc4ccc(C#N)cc4)cc32)c1 [compound 161, 6-(4-cyanophenoxy)-N-(3-ethynylphenyl)-2H-benzo[b][1,4]oxazine-4(3H)-carboxamide] | 140.58 ± 11.39 % of control | > 10000 nM |
| Cc1ccc(NC(=O)Nc2ccc(Cl)c(C(F)(F)F)c2)cc1Oc1ccc(C#N)c2ccccc12 [compound 114, 1-(4-chloro-3-(trifluoromethyl)phenyl)-3-(3-((4-cyanonaphthalen-1-yl)oxy)-4-methylphenyl)urea] | 156.85 ± 6.04 % of control | 760 nM |
| N#Cc1ccc(Oc2cc(NC(=O)Nc3cc(C(F)(F)F)cc(C(F)(F)F)c3)ccc2F)cc1 [compound 152, 1-(3,5-bis(trifluoromethyl)phenyl)-3-(3-(4-cyanophenoxy)-4-fluorophenyl) urea] | 336.99 ± 50.76 % of control | 340 nM |
| Cc1ccc(NC(=O)Nc2ccc(C)c(Oc3ccc(C#N)c(F)c3)c2)cc1Oc1ccc(C#N)c(F)c1 [compound 84, 1,3-bis(3-(4-cyano-3-fluorophenoxy)-4-methylphenyl)urea] | 108.62 ± 10.55 % of control | > 10000 nM |
| Cc1ccc(Oc2ccc(C#N)cc2)cc1NC(=O)Nc1cc(Oc2ccc(C#N)cc2)ccc1C [compound 93, 1,3-bis(5-(4-cyanophenoxy)-2-methylphenyl)urea] | 94.07 ± 0.82 % of control | > 10000 nM |
| Cc1ccc(NC(=O)Nc2cc(C(F)(F)F)cc(C(F)(F)F)c2)cc1Oc1ccc(C#N)cc1 [compound 131, 1-(3,5-bis(trifluoromethyl)phenyl)-3-(3-(4-cyanophenoxy)-4-methylphenyl) urea] | 327.86 ± 34.79 % of control | 230 nM |
| N#Cc1ccc(Oc2cc(NC(=O)Nc3ccc(F)c(Oc4ccc(C#N)cc4)c3)ccc2F)cc1 [compound 112, 1,3-bis(3-(4-cyanophenoxy)-4-fluorophenyl)urea] | 146.18 ± 14.74 % of control | 490 nM |
| C#Cc1cccc(NC(=O)Nc2cc(Oc3ccc(C#N)cc3)ccc2F)c1 [compound 144, 1-(5-(4-cyanophenoxy)-2-fluorophenyl)-3-(3-ethynylphenyl)urea] | 159.94 ± 30.14 % of control | 1790 nM |
| C#Cc1cccc(NC(=O)Nc2cccc(Oc3ccc(C#N)cc3)c2)c1 [compound 65, 1-(3-(4-cyanophenoxy)phenyl)-3-(3-ethynylphenyl)urea] | 84.35 ± 22.40 % of control | 1410 nM |
